Consider 2 molecules from US20220389477A1, “METHOD FOR EVALUATING ANTIBIOTIC SUSCEPTIBILITY” (Vrije Universiteit Brussel, priority 2019, published 2022).

For test [1], the system named is Escherichia coli culture. Briefly: E-test. As to conditions: culture EC/03D177. The test is classed as cell-based.
For test [2], the system named is E-coli. As to conditions: tabulated, known value, cited from earlier work.
Test [3] has as its system Escherichia coli culture. As to the kind of experiment: Broth microdilution (BMD). The test is classed as cell-based. The conditions noted are these: culture EC/03D177. Background: In broth dilution the organism is exposed to a series of concentrations in liquid medium.
Test [4] deals with Escherichia coli culture. As to the kind of experiment: Optical third-derivative MIC method, culture in broth. The class given is cell-based. As to conditions: EC/03D177; for MIC: Escherichia coli. From the text:
(§1) The method of FIG. 1 starts at a time equal to zero, t0 (1). Preferably, said t0 is the moment a pure bacteria culture is finished being prepared. Alternatively, said t0 is the moment all wells contain both said bacteria culture and said antimicrobial drug. After the starting of the experiment each well is periodically illuminated with a light source and the intensity of the transmitted light is detected with a photodetector (2). Preferably, each well is illuminated and the intensity of the transmitted light is detected every hour (2). More preferably, each well is illuminated and the intensity of the transmitted light is detected every 5 to 15 min. After a predetermined time length, preferably after 4 hours, a first, a second and a third derivative of said measured intensity is calculated (3) in a first and a second time frame for each well. Preferably, said second time frame is the last measured time frame after the test has been running for said predetermined time length, and said first time frame is the time frame preceding the second time frame. More preferably, said first time frame is between two and three hours and said second time frame is between three and four hours. After the calculation of said derivatives, said first derivative in said second time frame of said reference well is compared to a growth speed threshold value (4). Preferably, said growth speed threshold value is 0.166 (4). If said first derivative in said second time frame of said reference well is larger than or equal to said growth speed threshold value said bacteria culture is classified as Type I (4). If said first derivative in said second time frame of said reference well is smaller than said growth speed threshold value said bacteria culture is classified as Type II (4). Subsequently, independent of the classification of the bacteria culture according to the two types, the method comprises the following steps which are performed for each well or for all wells except said reference well. Both said first and said second time frames are evaluated to see if there is an inflection point present in the second derivative in said first and/or said second time frame (5).
(§2) If said first and/or said second time frame comprise said inflection point than said third derivative in said first time frame is compared to said third derivative in said second time frame (6). If said third derivative in said first time frame is larger than said third derivative in said second time frame, then said first time frame and said second time frame are selected as a first and second time frame to be used in a minimal inhibitory concentration determination method (10). If said third derivative in said first time frame is not larger than said third derivative in said second time frame, then said well is illuminated again after a certain time period, preferably an hour, more preferably 5 to 15 min after said predetermined time length said, with a light source and the intensity of the transmitted light is detected with a photodetector forming a new time frame subsequent to said second time frame (7). A third derivative, and possibly also a first and/or a second derivative, is calculated in said new time frame (7). Further, in step (7) a new first time frame is put equal to said second time frame and a new second time frame to equal to said new time frame. Subsequently, said third derivative in said new first time frame is compared to said third derivative in said new second time frame (8). If said derivative in said new first time frame is larger than said third derivative in said new second time frame, then said new first time frame and said new second time frame are selected as a first and second time frame to be used in a minimal inhibitory concentration determination method (10). […]

Test [5] concerns Pseudomonas aeruginosa culture. As to the kind of experiment: E-test. As to conditions: culture PA/2472. The test is classed as cell-based.
In test [6] the test system is Pseudomonas aeruginosa culture. Briefly: Broth microdilution (BMD). As to conditions: culture PA/2472. The class given is cell-based.
The test system of test [7] is Pseudomonas aeruginosa culture. As to the kind of experiment: Optical third-derivative MIC method, culture in broth. The test is classed as cell-based. The conditions noted are these: PA/2472; for MIC: Pseudomonas aeruginosa.
From the text: as §1, §2

Where [8] appears, read: 3 h-4 h, read-out: MIC (40%) T1.
[9] abbreviates: 3 h-4 h, read-out: MIC (60%) T1.
[10] abbreviates: 3 h-4 h, read-out: MIC (75%) T1.

Molecules are shown by their SMILES. Values after ≈ are worked out from the molar mass of the structure shown. Like-named read-outs stand apart in the source and are kept apart here. Bounds are passed on as bounds.

By MIC is commonly meant the lowest concentration found to suppress growth.

On to `CC1(C)S[C@@H]2[C@H](NC(=O)[C@H](N)c3ccccc3)C(=O)N2[C@H]1C(=O)O` [ampicillin], for which the minimum inhibitory concentration (MIC) in test [1] (Escherichia coli) was found to be 2 µg/mL (≈ 5.72 µM); in test [3], 4 µg/mL (≈ 11.4 µM); in test [4] (3 h-4 h, read-out: MIC (25%) T1), 2 µg/mL (≈ 5.72 µM); in test [4] (setting [8]), 2 µg/mL (≈ 5.72 µM); in test [4] (setting [9]), 2 µg/mL (≈ 5.72 µM); in test [4] (setting [10]), 2 µg/mL (≈ 5.72 µM). Moreover, the MIC in test [4] (4 h-5 h, read-out: MIC (25%) T2) came out at 8 µg/mL (≈ 22.9 µM); in test [4] (4 h-5 h, read-out: MIC (40%) T2), 2 µg/mL (≈ 5.72 µM); in test [4] (4 h-5 h, read-out: MIC (60%) T2) it was 2 µg/mL (≈ 5.72 µM); in test [4] (4 h-5 h, read-out: MIC (75%) T2), 2 µg/mL (≈ 5.72 µM); in test [4] (FIG. 5D, overall conclusion, read-out: MIC value determined by the method), 2 µg/mL (≈ 5.72 µM). For the same molecule, the “HR? (E-test)” value in test [1] was “no”. Besides, the MIC for Ampiciline in test [2] (Colony ID. 03D161) was 4 µg/mL; in test [2] (Colony ID. 03D177), 2 µg/mL; in test [2] (Colony ID. 03D179), over 32 µg/mL. Besides, the “heteroresistance determined by the method” value in test [4] (FIG. 5D, overall conclusion) is given as “not heteroresistant”. In addition, in test [4] (ratio MIC T2/T1), the “HR? at MIC (25%)” value was “yes (If the ratio of the MIC value in the second time frame over the MIC value in the first time frame is higher than or equal to 8 then the ratio is labelled to be heteroresistant)”. In addition, the “HR? at MIC (40%)” value in test [4] (ratio MIC T2/T1) was “no (If the ratio of the MIC value in the second time frame over the MIC value in the first time frame is lower than or equal to 4 then the ratio is labelled not to be heteroresistant)”. Moreover, the “HR? at MIC (60%)” value in test [4] (ratio MIC T2/T1) was “no (If the ratio of the MIC value in the second time frame over the MIC value in the first time frame is lower than or equal to 4 then the ratio is labelled not to be heteroresistant)”. In test [4] (ratio MIC T2/T1), the “HR? at MIC (75%)” value is on record as “no (If the ratio of the MIC value in the second time frame over the MIC value in the first time frame is lower than or equal to 4 then the ratio is labelled not to be heteroresistant)”.

For the molecule `CC(C)(O/N=C(\C(=O)N[C@@H]1C(=O)N2C(C(=O)[O-])=C(C[n+]3ccccc3)CS[C@H]12)c1csc(N)n1)C(=O)O` [ceftazidime], the minimal inhibitory concentration (MIC) in test [5] (Pseudomonas aeruginosa) came out at 32 µg/mL (≈ 58.5 µM); in test [6] it was 32 µg/mL (≈ 58.5 µM); in test [7] (3 h-4 h, omitted from determination (Type II), read-out: MIC (25%) T1), 64 µg/mL (≈ 117 µM); in test [7] (setting [8]), 32 µg/mL (≈ 58.5 µM); in test [7] (setting [9]) it was 32 µg/mL (≈ 58.5 µM); in test [7] (setting [10]) it was 32 µg/mL (≈ 58.5 µM). Moreover, the MIC in test [7] (5 h-6 h, omitted from determination (Type II), read-out: MIC (25%) T2) was 64 µg/mL (≈ 117 µM); in test [7] (5 h-6 h, read-out: MIC (40%) T2) it was 32 µg/mL (≈ 58.5 µM); in test [7] (5 h-6 h, read-out: MIC (60%) T2), 32 µg/mL (≈ 58.5 µM); in test [7] (5 h-6 h, read-out: MIC (75%) T2), 32 µg/mL (≈ 58.5 µM); in test [7] (FIG. 5E, overall conclusion, read-out: MIC value determined by the method), 32 µg/mL (≈ 58.5 µM). Besides, in test [5], the “HR? (E-test)” value is given as “no”. Also, the “heteroresistance determined by the method” value in test [7] (FIG. 5E, overall conclusion) is “not heteroresistant”. Moreover, in test [7] (ratio MIC T2/T1), the “HR? at MIC (40%)” value was “no (If the ratio of the MIC value in the second time frame over the MIC value in the first time frame is lower than or equal to 4 then the ratio is labelled not to be heteroresistant)”. In addition, the “HR? at MIC (60%)” value in test [7] (ratio MIC T2/T1) is listed as “no (If the ratio of the MIC value in the second time frame over the MIC value in the first time frame is lower than or equal to 4 then the ratio is labelled not to be heteroresistant)”. The “HR? at MIC (75%)” value in test [7] (ratio MIC T2/T1) is “no (If the ratio of the MIC value in the second time frame over the MIC value in the first time frame is lower than or equal to 4 then the ratio is labelled not to be heteroresistant)”. Besides, the “HR? at MIC (25%)” value in test [7] (ratio MIC T2/T1, omitted (Type II)) is on record as “no (If the ratio of the MIC value in the second time frame over the MIC value in the first time frame is lower than or equal to 4 then the ratio is labelled not to be heteroresistant)”.
